Measurements taken from US8057810B2, “Peptide substance revealing an immunogeroprotective effect, pharmaceutical composition on its base and the method of its application” (priority 2006, dated 2011).
Residues, ends and D or L forms follow the SMILES beside them.

Columns and labels:
[1] = test system: old rats' thymus explants; assay: Development of thymus explants taken from old rats (area index); assay type: cell-based; conditions: 0.5 ng/ml; 3rd day of cultivating; rats aged 24 months
Procedure: The experiments were staged on 35 fragments of the thymus and 45 fragments of the spleen taken from rats aged 24 months. Nutritional medium for cultivation consisted of 35% Eagle's solution, 25% calf fetal serum, 35% Hanx solution, 5% chicken embryonic extract, with the addition of glucose (0.6%), insulin (0.5 U/ml), penicillin (100 U/ml), glutamin (2 mM). […]
Peptide H-Glu-Asp-Pro-OH was added into the experimental medium in concentrations of 0.5, 10 and 100 ng/ml.
Area index (AI)—the ratio of total explant area including the growth zone to the initial area of thymus or spleen fragment was used as a criterion for measuring the biological activity. AI values were expressed in percent, control AI value being taken as 100%.

[2] = test system: thymus epithelium cells, line VTEC2.H/S; assay: Proliferation of thymus epithelium cells in ageing cultures (3H-thymidin); assay type: cell-based, human; parameters: unit not given here
Procedure: The study was staged in vitro in the culture of thymus epithelium cells, which were represented by cells of suspension line VTEC2.H/S, obtained by transforming thymus epithelial cells of human embryo thymus with the material containing SV40 virus, and subsequent cloning of transformed cells.
Peptide H-Glu-Asp-Pro-OH was introduced into cell cultures in successive dilutions to ultimate concentrations of 2, 20 and 200 ng/ml. Proliferation of thymus epithelium cells subjected to 1, 4 and 7 passages was estimated using a radiometrical method, judging by the content of ^3H-thymidin.

[3] = test system: lymphocytes taken from very old patients; assay: Chromatin in blood lymphocytes of old patients in vitro; assay type: cell-based, human; conditions: 0.01 μg/ml; lymphocytes of patients aged 75-88
Procedure: Peptide H-Glu-Asp-Pro-OH effect on the system of chromatin domains was studied in old people lymphocytes cultures, in particular on chromatin reactivation such as in deheterochromatinization of heterocliromatin satellite filaments (activity of synthetic processes in ribosomal genes, total heterochromatin, structural heterochromatin (changeability of C-blocks of the 1, 9 and 16 chromosomes) and optional heterochromatin.
The studies were conducted on the chromosomes of 150 PHA-stimulated and 40 PHA-non-stimulated lymphocyte cultures, obtained from 95 healthy patients aged 75-88 (control—25 donors aged 20-40). There were studied 2 cell cultures from each patient —one intact and one with peptide H-Glu-Asp-Pro-OH added into the cultural medium up to the ultimate concentration of 0.01 μg/ml. To study each parameter there were analyzed from 30 up to 50 metaphases of both intact lymphocyte cultures and those with added peptide (10 cultures of each).
To estimate ribosomal genes activity in intact cultures and under the effect of the peptide there were used methods of Ag-banding and of the registration of nucleolar organizers regions (NOR) of acrocentric chromosomes. Changeability of the activity level was estimated comparing two binomial totals.
Polymorphism of structural C-heterochromatin of the 1, 9 and 16 chromosomes was estimated. For comparative analysis of C-stained chromosomes of intact cultures and those treated with the peptide there was used a standard system of classification, according to which the size of the 1, 9, 16 chromosomes C-segments were compared to the chromosome 16 short leg and the results were divided into 5 categories—a, b, c, d, e. The changeability of facultative heterochromatin was estimated according to the frequency of sister chromatid exchange (SCE) in intact and peptide-treated lymphocytes.

[4] = test system: white mongrel male rats; assay: Subacute toxicity, 90 days intramuscular; assay type: in vivo; conditions: i.m. daily for 90 days, 1 μg/kg, 0.1 mg/kg, 1 mg/kg (100-1000 times the therapeutic dose)
Procedure: Common toxicity of H-Glu-Asp-Pro-OH was studied according to the requirements stated in the “Manual for experimental (pre-clinical) study of new pharmacological substances” (2005): acute toxicity in case of single administration of the substance and sub-acute and chronic toxicity in case of long-term administration of the peptide.
The study of acute toxicity was performed on 60 white mongrel male mice with body weight of 18-21 g. The animals were randomly subdivided into 6 equal groups. The substance was administered to the animals once, intramuscularly, in the doses of 1 mg/kg, 2 mg/kg, 3 mg/kg, 4 mg/kg, 5 mg/kg in 0.25 ml of sterile 0.9% NaCl solution. The control animals received 0.9% NaCl solution in the same volume. The study of subacute toxicity was performed on 50 white mongrel male rats with body weight of 170-210 g. Experimental animals received the substance daily, intramuscularly for 90 days in the doses of 1 μg/kg, 0.1 mg/kg, 1 mg/kg in 0.5 ml of sterile 0.9% NaCl solution. […] Upon completion of the experiment biochemical and coagulologic indices of the blood were also evaluated. […] Traditional methods were used for the evaluation of the following indices of the animals' peripheric blood: the quantity of erythrocytes, hemoglobin, reticulocytes, thrombocytes, leukocytes, leukocyte formula, erythrocyte sedimentation rate (ESR), erythrocyte resistance. […]

With `N[C@@H](CCC(=O)O)C(=O)N[C@@H](CC(=O)O)C(=O)N1CCC[C@H]1C(=O)O` [Peptide H-Glu-Asp-Pro-OH, glutamyl-aspartyl-proline] (H-Glu-Asp-Pro-OH) the “Area index (AI) in thymus explants, increase as compared to the control AI” value [1] was 24%, the “Proliferation of thymus epithelial cells (3H-thymidin content)” value (from here on “Proliferation of thymus epithelial cells”) ([2]; 2 ng/ml, 1st passage) was 1480 ± 89 and the “Proliferation of thymus epithelial cells” value ([2]; 2 ng/ml, 4th passage) was 730 ± 54. The “Proliferation of thymus epithelial cells” value ([2]; 2 ng/ml, 7th passage) was 705 ± 46, the “Proliferation of thymus epithelial cells” value ([2]; 20 ng/ml, 1st passage) was 1585 ± 95 and the “Proliferation of thymus epithelial cells” value ([2]; 20 ng/ml, 4th passage) was 680 ± 48. The “Proliferation of thymus epithelial cells” value ([2]; 20 ng/ml, 7th passage) was 680 ± 41, the “Proliferation of thymus epithelial cells” value ([2]; 200 ng/ml, 1st passage) was 1530 ± 91 and the “Proliferation of thymus epithelial cells” value ([2]; 200 ng/ml, 4th passage) was 760 ± 58. For the same compound, the “Proliferation of thymus epithelial cells” value ([2]; 200 ng/ml, 7th passage) was 795 ± 49, the “Associated acrocentric chromosomes (per cell)” value [3] was 2.32 ± 0.12 per cell and the “Deheterochromatinization of optional heterochromatin - SCE (per cell)” value [3] was 8.4 ± 0.5 per cell. For the same compound, the “Structural heterochromatin (C-blocks), chromosome 1” value [3] was “Deheterochro-”, the “Structural heterochromatin (C-blocks), chromosome 9” value [3] was “Deheterochro-” and the “Structural heterochromatin (C-blocks), chromosome 16” value [3] was “Stable”. For the same compound, the Total heterochromatin [3] was “Deheterochro-” and the “Subacute toxicity: side effects” value [4] was “absence of any side effects”.
